Assay results published in patent publication US11358965B2, “EGFR dimer disruptors and use of the same” (THE REGENTS OF THE UNIVERSITY OF MICHIGAN, priority 2018, dated 2022).

Experiments:
[1] = test system: Ba/F3-AZR cells (L858R+T790M+C797S-EGFR); test: Osimertinib resistant Ba/F3-AZR ascites tumor model; assay type: in vivo, nude mice; conditions: single 30 mg/kg dose (Compound 8C i.p., osimertinib oral), 18 days after tumor cells
[2] = test system: EGFR; test: EGF-induced EGFR dimerization and EGFR degradation in PC9-AZR cells; assay type: cell-based; conditions: 1 μM, 1 hour, then EGF 30 ng/ml
Experimental: (§1) It was determined if the response to Compound 8C correlates with inhibition of EGF-induced dimerization and degradation of EGFR. For this, PC9-AZR cells were treated for 1 hour with 1 μM Compound 8C and an additional 30 minutes with EGF (30 ng/ml) and 30 minutes with disuccinimidyl suberate (DSS, 150 μM) to cross-link interacting proteins. Lysates were prepared and immunoblotted with anti-EGFR antibodies.

[3] = test system: UMSCC74B; test: UMSCC74B head and neck tumor model, daily for one week; assay type: in vivo
Experimental: Efficacy testing of Compound 8C in UMSCC74B, an EGFR driven, aggressive tumor model of the head and neck. Tumor bearing mice were treated with 30 mg/kg dose daily (Monday-Friday) for one week. This dose was selected based on single dose PK profile (see FIG. 8A). This treatment was safe and produced significant tumor growth delay (see FIG. 10).
Nude mice bearing either UMSCC74B ([…]) were treated with (30 mg/kg, daily for one week) or with vehicle (5% DMSO in PBS). Each group had at least 5 mice. Tumor volume and body weight was recorded 3-4 times a week, and change in the average tumor volume with time is plotted. The average loss in body weight during treatment was less than 10%. Error bar represents standard error of the mean.
For the Compound 8C treatment group, day 0 is defined as the first day of treatment. In vehicle control mice, day 0 was defined as the day when the tumor volume was closest to the mean tumor volume in Compound 8C treatment groups on the day of treatment initiation. To assess whether tumor volume growth rates differed by treatment, mixed effect models were fit with random intercept terms at the mouse levels to account for correlated outcomes over time within a tumor and between 2 tumors within a mouse. Monotherapy elicited a significant reduction in tumor growth rate after one week of dosing (see FIG. 10).

[4] = test system: UMSCC74B; test: UMSCC74B xenografts, oral gavage twice weekly; assay type: in vivo, mouse; conditions: 30 mg/kg, vs untreated and cetuximab controls
Experimental: Mouse xenographs of UMSCC74B, a head and neck tumor cell line, were treated with Compound 8C via oral gavage (30 mg/kg body weight, twice weekly).

[5] = test system: HCT-116; test: NCI 60 cell line screen, HCT-116; assay type: cell-based, human; conditions: Colon Cancer
Experimental: (§2) The activity of Compound 8C was tested against 60 different human tumor cell lines at the National Cancer Institute, using the standard NCI 60 screening protocol.

[6] = test system: UACC-257; test: NCI 60 cell line screen, UACC-257; assay type: cell-based, human; conditions: Melanoma
Experimental: as §2

[7] = test system: UACC-62; test: NCI 60 cell line screen, UACC-62; assay type: cell-based, human; conditions: Melanoma
Experimental: as §2

[8] = test system: COLO 205; test: NCI 60 cell line screen, COLO 205; assay type: cell-based, human; conditions: Colon Cancer
Experimental: as §2

[9] = test system: MCR5 cells; test: Clonogenic IC50, MCR5; assay type: cell-based; conditions: MCR5, MCR5
Experimental: as §1
The viability of cells upon treatment was assessed by CellTiter-Blue® reagent following the manufacturer's protocol in RKO, UM10B, UM1, MCR5, and UMCC92 cells. Briefly, 10,000 cells were plated in 96-well plate in quadruplets. One day after seeding, cells were treated with a range of concentrations (0.1 to 30 micromolar). 3-days post-treatment, cells were incubated with the CellTiter-Blue® reagent for 4 hr. Only the viable cells convert the redox dye (reszurin) into a fluorescent product (resofurin). The emission of fluorescence (excitation 560 nm) was measured at […]. The IC50 value was calculated as the mean concentration of compounds required to inhibit cell proliferation as measured by the fluorescence at […] by 50 percent compared to the vehicle-treated controls.

[10] = test system: PanIn (Pancreatic Intraepithelial Neoplasia); test: Pancreatic tumor model (KC mice), PanIn; assay type: in vivo; conditions: oral gavage, 30 mg/kg body weight, daily
Experimental: 6-week old KC mice were treated with Compound 8C via oral gavage (30 mg/kg body weight, daily).

[11] = test system: M14; test: NCI 60 cell line screen, M14; assay type: cell-based, human; conditions: Melanoma
Experimental: as §2

[12] = test system: 786-0; test: NCI 60 cell line screen, 786-0; assay type: cell-based, human; conditions: Renal Cancer
Experimental: as §2

SMILES: CN1CCC2(CC1)N=C(SCC(=O)Nc1cnc3ccccc3c1)C(c1ccc(Br)cc1)=N2 [Compound 8C, 2-((3-(4-bromophenyl)-8-methyl-1,4,8-triazaspiro[4.5]deca-1,3-dien-2-yl)thio)-N-(quinolin-3-yl)acetamide]
- survival [1]: prolonged life
- EGFR dimerization and degradation of EGFR [2]: can inhibit EGFR dimerization and induce degradation of EGFR
- safety of treatment ([3]; 30 mg/kg dose daily (Monday-Friday) for one week): safe
- average loss in body weight during treatment ([3]; 30 mg/kg, daily for one week): less than 10%
- tumor growth rates ([3]; 30 mg/kg, daily for one week, vs time-matched control (p=0.013) and overall control (p<0.001)): significantly lower
- tumor volume [4]: significantly reduced tumor volume
- Percent Growth [5]: −90.7%
- Percent Growth [6]: −61.2%
- Percent Growth [7]: −78.9%
- Percent Growth [8]: −76.2%
- IC50 [9]: 18.6 µM
- propensity for developing PanIn [10]: significantly reduced propensity
- Percent Growth [11]: −83.8%
- Percent Growth [12]: −81.7%
